In patent publication US20140371189A1, “TESTOSTERONE REPLACEMENT THERAPY IN ANIMALS, INCLUDING DOGS” (David Bieber Consulting, LLC, priority 2013, published 2014):

Assays:
[1] = injectable ester; cited from earlier work
[2] = cited from earlier work; for effectiveness when taken orally: oral
[3] = system: neutered male Cocker Spaniel with declines in mobility and arthritis; assay: Example 2: clinical outcome and side effects in a neutered male Cocker Spaniel
Method: (§1) A 28.7 pound, 12 year and two month-old neutered male Cocker Spaniel named Blackjack was evaluated because of his owner's concerns about declines in his level of mobility and arthritis.
(§2) During month one of the protocol, Blackjack was screened for treatment by conducting a thorough physical exam, complete blood chemistry, urinalysis, and testosterone level. […] An initial injection of testosterone IM was administered and Blackjack began treatment with Previcoxx 57 mg once per day. A follow-up was conducted by phone one day after the initial injection and again at two weeks post injection.
(§3) Previcoxx was discontinued and Metacam was prescribed. During a follow-up appointment Blackjack received an injection of testosterone IM. […] It was decided to increase the dosage of testosterone.
Radiographs were taken to rule out degenerative joint disease and neoplasia. During month three, the patient received another injection of testosterone IM. […] Blackjack was then operated on to treat the fracture.
Monthly injections of testosterone continued. The dosage of testosterone had to be lowered after surgery due to concerns about Blackjack being too active after surgery to repair his fracture and was raised again after healing was complete. During month nine, Blackjack underwent further surgery to remove multiple skin growths.
During month ten Blackjack received an injection of testosterone, returning him to the dosage he received prior to his injury and subsequent surgery. […] During month twelve Blackjack continued receiving testosterone injections, and during month thirteen additional skin growths had to be removed.

[4] = system: dogs compromised by osteoarthritis, intervertebral disc disease, hip dysplasia, weakness due to old age, muscle atrophy and joint pain; assay: Example 1: testosterone replacement therapy study, medical record review; type: in vivo, dog
Source text: In order to treat dogs, horses, or other animals in need of testosterone replacement therapy, the following protocol should be followed: • (1) Obtain information about potential patient via a clinical intake process and questionnaire such as the example shown in the drawing figure; • (2) Conduct a general physical examination on potential patient; • (3) Conduct laboratory tests on potential patient's blood and/or urine, including measuring initial testosterone levels in the patient's blood. This can be total testosterone or free testosterone. […]
A study was undertaken to determine if dogs compromised by osteoarthritis (also known as degenerative joint disease), intervertebral disc disease, hip dysplasia, weakness due to old age, muscle atrophy and joint pain experienced improvements following testosterone replacement therapy. […] Data from the medical records were analyzed to determine the efficacy of the treatment protocol. Data recorded from medical records included breed, date of birth, age, sex, neutered vs. intact, baseline testosterone level, date of testosterone injections and improvement status (improved vs. no noticeable improvement). […]
Following informed assent by each dog owner, each dog underwent an initial clinical exam including a detailed health history, list of medications, a CBC, urinalysis and baseline testosterone level were conducted. […] Changes in mobility, pain level/medications needed, energy and muscle tone were assessed and testosterone dosage was adjusted if needed prior to each injection. Follow-up testosterone levels were measured one week after the initial injection and on an as needed basis throughout the course of treatment. […]

[5] = Example 2: blood testosterone level during testosterone therapy; conditions: for testosterone level: dog Blackjack
Method: as §1, §2, §3
At this time a regular annual exam was conducted.

[6] = free, non-esterified form; cited from earlier work

C[C@]12CC[C@H]3[C@@H](CCC4=CC(=O)CC[C@@]43C)[C@@H]1CC[C@@H]2OC(=O)CCC1CCCC1 [Testosterone cypionate]
release time [1]: 8 to 10 days

CCCCCCC(=O)O[C@H]1CC[C@H]2[C@@H]3CCC4=CC(=O)CC[C@]4(C)[C@H]3CC[C@]12C [Testosterone enanthate]
release time [1]: 8 to 10 days

C[C@]12CC[C@H]3[C@@H](CCC4=CC(=O)CC[C@@]43C)[C@@H]1CC[C@@H]2OC(=O)CCc1ccccc1 [Testosterone phenylpropionate]
release time [1]: 1-3 weeks

CCCCCCCCCCC(=O)O[C@H]1CC[C@H]2[C@@H]3CCC4=CC(=O)CC[C@]4(C)[C@H]3CC[C@]12C [testosterone undecanoate]
effectiveness when taken orally [2]: effective when taken orally | time to elimination from the body ([2]; orally administered): 3 to 4 h

C[C@]12CC[C@H]3[C@@H](CCC4=CC(=O)CC[C@@]43C)[C@@H]1CC[C@@H]2O [testosterone]
healing of distal humeral lateral condylar fracture while being treated ([3]; after surgery): completely healed from this fracture within two months of surgery | side effects ([3]; follow-up one day and two weeks after initial IM injection): No side effects were reported | behaviour leading to dosage decrease ([3]; month eleven): mounting other dogs | owner-reported improvements ([3]; owner interview in week 57 of the protocol): improvements in Blackjack's ability to jump on furniture, ascend and descend stairs, and rise from sitting and lying positions | adverse side effects from the treatment ([3]; whole course of treatment): no adverse side effects | subjects that made improvements after the study protocol ([4]; 25 dogs analysed, n=23 improved, monthly testosterone injections, improvement = more mobility and/or energy, less pain medication, less muscle atrophy): ninety-two | side effects ([4]; evaluated at monthly follow-ups, all dogs): no side effects were observed | dogs whose injection dosages had to be lowered due to becoming too active ([4]; two of 25 dogs): 8% | testosterone level ([5]; second month, one week after second IM injection, baseline <40 pg/ml): 604.80 pg/mL | testosterone level ([5]; third measurement (month three/four) after increased IM dosage): 1224.50 pg/mL | concentration at 4 month ([5]; male, Cocker Spaniel, dog, blood, intramuscular): 1.22 ng/mL | solubility in oil and water [6]: poor solubility in both oil and water | effectiveness when taken orally [2]: not effective

Testosterone propionate
release time [1]: 3 to 4 days
